Source: patent publication US11014902B2, “MYC G-quadruplex stabilizing small molecules and their use” (The United States of America, as represented by the …, priority 2015, dated 2021)

Tests used:
RB1, BCL2 G4s = test: Biophysical measurements of compound affinity, RB1 and BCL2 G4s; type: binding
c-Myc transcription = c-Myc transcription in myeloma cells (qPCR); type: cell-based, human; settings: 10 μM, after 24 hours
Procedure: (§1) Since two thirds of multiple myeloma cases involve deregulated c-MYC expression (Kuehl and Bergsagel, Blood 2012, 120, 2351; Shou, et al., Proc Natl Acad Sci USA 2000, 97, 228), we elected to evaluate the cell viability effects of Compound 1 in a multiple myeloma model. […] This suppression was maintained over 72 hours, which is notable given the characteristic rapid replenishment of the protein—a phenomenon that complicates targeting c-Myc at the protein level (FIG. 4C). This effect was maintained across a genetically diverse set of 4 multiple myeloma lines. We observed decreases in c-MYC translation in all lines tested, and this effect also correlated with decreases in viability (FIG. 4D).

myeloma cells = test: Apoptosis (Annexin V/7-AAD staining, FACS); type: cell-based, human; settings: 10 μM, 72 h
Procedure: To further explore the mechanism of action for the anticancer activity of Compound 1, cell cycle analysis was performed and monitored for potential induction of apoptotic death. […] Additionally, minimal increases in apoptosis were observed, by Annexin V/7-AAD staining and FACS analysis; only 13% of the cells were undergoing apoptosis (FIG. 5B).

KRAS, VEGF G4s = test: Biophysical measurements of compound affinity, KRAS and VEGF G4s; type: binding
c-Myc protein = c-Myc protein translation in myeloma cells (Western blot); type: cell-based, human; settings: 10 μM, maintained over 72 hours
Procedure: as §1
Cell pellets/tissue were homogenized and lysed in RIPA buffer on ice for 1 h. Protein was quantitated by BCA, and equal protein was loaded onto 4-12% Bis-Tris Gels (Novex), electrophoresed at 150 V for 75 min to obtain sufficient separation, and transferred via the iBlot system (Life Technologies). Successful transfer and uniform loading was confirmed by Ponceau S staining (Thermo Scientific). Blots were blocked in 10% dry milk in TBST, incubated with primary monoclonal antibodies in 5% BSA at concentrations designated by the manufacturer, and gently rotated at 4° C. overnight. […]

[1] = test system: c-MYC exon 1 transcription in CA46 cells; test: Exon specific qPCR assay, exon 1; type: cell-based, human; settings: 10 μM, up to 48 hours
From the text: (§2) To confirm a G4 specific mechanism of action in cells, the CA46 Burkitt's Lymphoma line was used in an exon-specific assay, as previously reported (Boddupally, et al., J Med Chem 2012, 55, 6076). For most cell lines, 85-90% of c-Myc expression is controlled by the G4 located prior to exons 1 and 2 in the promoter. Furthermore, expression predominantly occurs following exon 2, due to a thousand-fold increase in transcription from this allele (Brown, et al., J Biol Chem 2011, 286, 41018). The CA46 Burkitt's Lymphoma cell line is an exception to this trend due to the existence of a chromosome (8:14) (Pelicci, et al., Proc Natl Acad Sci USA 1986, 83, 2984) translocation between exons 1 and 2, leaving exon 1 under G4 control. As a result, c-Myc expression from exon 2 is G4 independent (FIG. 3B). This renders the overall cell line resistant to G4-mediated c-Myc inhibition at the RNA and protein level, and proliferation should be uninhibited by G4-stabilizing agents.
(§3) CA46 cells were treated with ligands of interest or DMSO control at designated time points, washed in PBS, flash frozen, and RNA isolated using the Qiagen RNeasy Kit. RNA was quantified by NanoDrop, and 0.5 μg was reverse transcribed for use in qPCR. […]

[2] = test system: c-MYC exon 2 transcription in CA46 cells; test: Exon specific qPCR assay, exon 2; type: cell-based, human; settings: 10 μM, up to 48 hours
From the text: as §2, §3

ARD = test: Multiple myeloma cell viability; type: cell-based
Procedure: (§4) Human multiple myeloma and Burkitt's Lymphoma cell lines L363, CA46, MM-1R, KMS-11, and MM-1S were cultured and authenticated as previously described (Simmons, et al., Molecular oncology 2014, 8, 261). All plasma derived cell lines were cultured in RPMI-1640 (2 mM L-glutamine, 10% fetal bovine serum (FBS), 100 U/ml penicillin, 100 μg/ml streptomycin: Gibco) and incubated at 37° C. with 5% CO2. Viability experiments were performed in quadruplicate on 96-well plates (Costar) at designated time and dose points. MTS reagent was then directly added, incubated at 37° C. for 90 min, and absorbance of MTS formazan was read at 500 nm on an Omega 640 spectrophotometer. Percentage cell viability was normalized to the absorbance of untreated (DMSO) wells. In the case of cells harvested for their protein or RNA, pellets were flash frozen and stored at −80° C. overnight prior to use.
(§5) Additional multiple myeloma cell lines were assayed for cell viability in the presence of Compound 23, and the following IC50 values were determined.

JIM1 = test: Multiple myeloma cell viability; type: cell-based
Procedure: as §4, §5

AMO1 = test: Multiple myeloma cell viability; type: cell-based; settings: Homo sapiens
Procedure: as §4, §5

KMM1 = test: Multiple myeloma cell viability; type: cell-based; settings: KMM-1
Procedure: as §4, §5

KMS12PE = test: Multiple myeloma cell viability; type: cell-based; settings: Homo sapiens, KMS-12-PE
Procedure: as §4, §5

KMS27 = test: Multiple myeloma cell viability; type: cell-based; settings: KMS-27
Procedure: as §4, §5

Compound: Cc1ccc(NC(=O)c2c(C)oc3ccc(O)c(CN4CCCCCC4)c23)cc1 [Compound 1]
- G4 binding relative to MYC (RB1, BCL2 G4s): weaker binding
- decrease in c-Myc transcription (c-Myc transcription): seven-fold decrease
- cells undergoing apoptosis (myeloma cells): 13%
- G4 binding (KRAS, VEGF G4s): complete lack of G4 binding
- c-Myc protein translation (c-Myc protein): significantly inhibited
- transcription from exon 1 [1]: sustained downregulation
- transcription from exon 2 [2]: unaffected

Compound: Cc1oc2ccc(O)c(CN3CCCCCC3)c2c1C(=O)Nc1ccc(C(F)(F)F)cc1 [Compound 23]
- IC50 (ARD): 5.75 µM
- IC50 (JIM1): 6.35 µM
- IC50 (AMO1): 5.92 µM
- IC50 (KMM1): 4.13 µM
- IC50 (KMS12PE): 5.33 µM
- IC50 (KMS27): 5.06 µM
